Our source for the GI50 and TGI values is PubChem BioAssay (NCI).

What all share (test): NCI tumour cell line growth inhibition, 48 h
For test [1], the system named is MOLT-4 leukemia.
Test [2] has as its system EKVX NSCLC.
Test [3] deals with NCI-H23 lung.
In test [4] the test system is SK-MEL-28 melanoma.
Test [5] concerns IGROV1 ovarian.
In test [6] the test system is MCF7 breast.
For test [7], the system named is NCI-H460 lung.
Test [8] relates to T-47D breast.
Test [9] concerns 786-0 renal.
Test [10] has as its system OVCAR-4 ovarian.

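Following 48 hours of exposure in 96-well plates, responses at five concentrations were used to interpolate endpoints linearly. At the GI50, growth is halved. TGI: total growth inhibition.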

For the compound `CCOC1OC(=O)[C@H]2[C@@H]1[C@@H]1CC[C@H]2O1` (stereo not given in full), the GI50 in test [1] was greater than 100 µM; in test [2], greater than 100 µM; in test [3] it was greater than 100 µM; in test [4] it was 0.378 µM; in test [5] it was greater than 100 µM; in [6], greater than 100 µM. In addition, the GI50 in [7] was greater than 100 µM; in test [8], greater than 59.1 µM; in [9] it was greater than 100 µM; in [10], greater than 100 µM. Moreover, the TGI in [1], in [2], in test [3], in test [4], in test [5] and in test [6] was greater than 100 µM each time. Further, the TGI in test [7], in test [8], in test [9] and in [10] was greater than 100 µM throughout.

In the case of `Nc1n[nH]c(N)c1N=Nc1ccc(O)cc1`, the GI50 was 13.5 µM in test [1]; 22 µM in [2]; 19.1 µM in [3]; 22.1 µM in [4]; 20.6 µM in test [5]; 23.5 µM in [6]. Further, the GI50 in test [7] is 25.1 µM; in test [8] it was 14.2 µM; in test [9] it was 26.3 µM; in [10] it was 19 µM. Also, the TGI in test [1] worked out at 91 µM; in [2], 67.8 µM; in test [3] it was 62.3 µM; in test [4] it was 63.8 µM; in test [5] it was 81.4 µM; in test [6], 90.8 µM. The TGI was 97.2 µM in test [7], 87.5 µM in [8], greater than 100 µM in [9] and 74.7 µM in test [10].

Take `O=C1CCC(N2C(=O)c3cccc(NCCCC4CCN(CCNC(=O)c5cc6c(o5)C(=O)c5ccccc5C6=O)CC4)c3C2=O)C(=O)N1` (stereo not given): the GI50 was 1.93 µM in test [1]; 1.5 µM in test [2]; 0.159 µM in test [3]; 1.88 µM in test [4]; 0.576 µM in test [5]; 0.0102 µM in test [6]. Further, the GI50 was 0.249 µM in [7], 1.82 µM in [8], 1.44 µM in [9] and 0.747 µM in [10]. Further, the TGI in [1] came out at 13.8 µM; in test [2], 3.34 µM; in test [3] it was 0.399 µM; in test [4], 4.57 µM; in [5], 2.3 µM; in test [6], 0.215 µM. For the same compound, the TGI in [7] is 0.609 µM; in [8], 11 µM; in [9], 3.17 µM; in test [10] it was 2.08 µM.

As for `O=C1CSC(c2ccccc2O)N1c1nnc(Cn2ccnc2)o1` (stereo not given), the GI50 in test [1] was 5.23 µM; in test [2], 3.5 µM; in test [3] it was 14.9 µM; in test [4], 13.8 µM; in [5], 16 µM; in [6] it was 5.43 µM. For the same compound, the GI50 is 4.76 µM in test [7], 6.11 µM in test [8], 7.8 µM in [9] and 4.51 µM in [10]. Besides, the TGI was greater than 100 µM in test [1]; 20 µM in [2]; 65 µM in test [3]; 41.2 µM in test [4]; 37 µM in test [5]; 23.5 µM in [6]. The TGI is greater than 100 µM in [7], 27.2 µM in test [8], greater than 100 µM in [9] and 37.2 µM in test [10].

On to `Cc1c2ccncc2c(C)c2c1c1cc(CO)ccc1n2C`, for which the GI50 in [1] is 0.368 µM; in [2], 0.719 µM; in [3], 0.429 µM; in test [4], 1.82 µM; in test [5] it was 0.214 µM; in [6] it was 0.282 µM. In addition, the GI50 in test [7] was 0.243 µM; in test [8], 0.268 µM; in test [9] it was 0.596 µM; in test [10], 0.285 µM. Also, the TGI in test [1] turned out to be 2.13 µM; in test [2], 5.98 µM; in [3], 2.66 µM; in test [4] it was 6.5 µM; in test [5], 1.76 µM; in test [6] it was 10.4 µM. Moreover, the TGI amounted to 1.1 µM in test [7], 3.52 µM in test [8], 5.07 µM in test [9] and 1.82 µM in test [10].

On to `CCN(CC)C(=O)COc1cc2c(O)c3c(O)c(C)c4c(c13)C(=O)C(C)(OC=CC(OC)C(C)C(OC(C)=O)C(C)C(O)C(C)C(O)C(C)C=CC=C(C)C(=O)N2)O4` (stereo not given), for which the TGI in test [1], in test [2], in test [3], in test [4], in [5] and in [6] was greater than 100 µM each time. Further, the TGI in [7], in test [8], in test [9] and in test [10] was greater than 100 µM each time.

As for `COc1cc(/C=C/[N+](=O)[O-])cc(OC)c1OC`, the GI50 in test [1] was 4.56 µM; in [2] it was 13.6 µM; in test [3], 2.41 µM; in [4] it was 2.23 µM; in test [5], 2.45 µM; in test [6] it was 3.08 µM. For the same compound, the GI50 is 3.36 µM in test [7], 2 µM in test [8], 1.9 µM in [9] and 3.22 µM in test [10]. For the same compound, the TGI is 34.1 µM in test [1]; 28.4 µM in test [2]; 6.44 µM in [3]; 4.9 µM in [4]; 7.61 µM in [5]; 14.6 µM in test [6]. The TGI in test [7] was 12.4 µM; in test [8], 9.6 µM; in test [9], 3.53 µM; in test [10], 11.5 µM.
